{"source": "ChEMBL document CHEMBL6074684", "about": "“Structure-activity relationship study of novel evodiamine amino acid conjugates with potent anti-colorectal cancer efficacy” (Eur J Med Chem, 2025)", "key": {"HCT-116": {"system": "HCT-116", "test": "Antiproliferative activity against human […] cells assessed as inhibition of cell growth incubated for 72 hrs by MTT assay", "assay_type": "functional, cell-based", "settings": "HCT-116, 72 h"}, "LoVo [1]": {"system": "LoVo", "test": "Antiproliferative activity against human LoVo cells assessed as inhibition of cell growth incubated for 72 hrs by MTT assay", "assay_type": "functional, cell-based"}, "SGC-7901": {"system": "SGC-7901", "test": "Antiproliferative activity against human SGC-7901 cells assessed as inhibition of cell growth incubated for 72 hrs by MTT assay", "assay_type": "functional, cell-based", "settings": "SGC-7901, 72 h"}, "Huh-7": {"system": "Huh-7", "test": "Antiproliferative activity against human Huh-7 cells assessed as inhibition of cell growth incubated for 72 hrs by MTT assay", "assay_type": "functional, cell-based", "settings": "Huh-7, 72 h"}, "SK-HEP1": {"system": "SK-HEP1", "test": "Antiproliferative activity against human SK-HEP1 cells assessed as inhibition of cell growth incubated for 72 hrs by MTT assay", "assay_type": "functional, cell-based", "settings": "SK-HEP1, 72 h"}, "MCF7": {"system": "MCF7", "test": "Antiproliferative activity against human MCF7 cells assessed as inhibition of cell growth incubated for 72 hrs by MTT assay", "assay_type": "functional, cell-based", "settings": "MCF7, 72 h"}, "[2]": {"test": "Stability of compound in rat plasma assessed as half-life", "assay_type": "ADME, cell-free"}, "[3]": {"test": "Stability of compound at pH 5.5 assessed as residual rate measured after 2 days", "assay_type": "physicochemical", "settings": "buffer, time 2 day, read-out: Stability"}, "[4]": {"test": "Half-life in male Sprague-Dawley rat at 50 mg/kg, ip measured after 24 hrs by LC-MS/MS analysis", "assay_type": "ADME, organism-based", "settings": "in vivo"}, "[5]": {"test": "Tmax in male Sprague-Dawley rat at 50 mg/kg, ip measured after 24 hrs by LC-MS/MS analysis", "assay_type": "ADME, organism-based", "settings": "in vivo"}, "[6]": {"test": "AUC (0 to t) in male Sprague-Dawley rat at 50 mg/kg, ip measured after 24 hrs by LC-MS/MS analysis", "assay_type": "ADME, organism-based", "settings": "in vivo"}, "[7]": {"test": "Potency index, ratio of topotecan IC50 to test compound IC50 for antiproliferative activity against human LoVo cells assessed as inhibition of cell growth incubated for 72 hrs by MTT assay", "assay_type": "functional"}, "[8]": {"test": "Potency index, ratio of topotecan IC50 to test compound IC50 for antiproliferative activity against human RKO cells assessed as inhibition of cell growth incubated for 72 hrs by MTT assay", "assay_type": "functional"}, "RKO [9]": {"system": "RKO", "test": "Antiproliferative activity against human RKO cells assessed as reduction in cell viability measured after 24 hrs", "assay_type": "functional, cell-based", "settings": "dose 40-200 nmol/L"}, "LoVo [10]": {"system": "LoVo", "test": "Cell cycle arrest in human LoVo cells assessed as accumulation of cells at G1 phase cells at 90 nM incubated for 24 hrs by […]PI staining based flow cytometric analysis (reference value: 29.69 %)", "assay_type": "functional"}, "LoVo [11]": {"system": "LoVo", "test": "Cell cycle arrest in human LoVo cells assessed as accumulation of cells at G1 phase cells at 10 nM incubated for 24 hrs by […]PI staining based flow cytometric analysis (reference value: 29.69 %)", "assay_type": "functional"}, "LoVo [12]": {"system": "LoVo", "test": "Cell cycle arrest in human LoVo cells assessed as accumulation of cells at S phase cells at 10 nM incubated for 24 hrs by […]PI staining based flow cytometric analysis (reference value: 54.99 %)", "assay_type": "functional"}, "LoVo [13]": {"system": "LoVo", "test": "Cell cycle arrest in human LoVo cells assessed as accumulation of cells at G2 phase cells at 30 nM incubated for 24 hrs by […]PI staining based flow cytometric analysis (reference value: 14.84 %)", "assay_type": "functional"}, "LoVo [14]": {"system": "LoVo", "test": "Cell cycle arrest in human LoVo cells assessed as accumulation of cells at S phase cells at 30 nM incubated for 24 hrs by […]PI staining based flow cytometric analysis (reference value: 54.99 %)", "assay_type": "functional"}, "RKO [15]": {"system": "RKO", "test": "Cell cycle arrest in human RKO cells assessed as accumulation of cells at G1 phase at 90 nM incubated for 24 hrs by […]PI staining based flow cytometric analysis (reference value: 35.29 %)", "assay_type": "functional"}, "RKO [16]": {"system": "RKO", "test": "Cell cycle arrest in human RKO cells assessed as accumulation of cells at G2 phase at 10 nM incubated for 24 hrs by […]PI staining based flow cytometric analysis (reference value: 20.07 %)", "assay_type": "functional"}, "RKO [17]": {"system": "RKO", "test": "Cell cycle arrest in human RKO cells assessed as accumulation of cells at S phase at 10 nM incubated for 24 hrs by […]PI staining based flow cytometric analysis (reference value: 43.36 %)", "assay_type": "functional"}, "RKO [18]": {"system": "RKO", "test": "Cell cycle arrest in human RKO cells assessed as accumulation of cells at G2 phase at 30 nM incubated for 24 hrs by […]PI staining based flow cytometric analysis (reference value: 20.07 %)", "assay_type": "functional"}, "RKO [19]": {"system": "RKO", "test": "Cell cycle arrest in human RKO cells assessed as accumulation of cells at S phase at 30 nM incubated for 24 hrs by […]PI staining based flow cytometric analysis (reference value: 43.36 %)", "assay_type": "functional"}, "LoVo [20]": {"system": "LoVo", "test": "Induction of morphological changes in human LoVo cells assessed as appearance of contracted nucleus incubated for 24 hrs by Giemsa staining based microscopic analysis", "assay_type": "functional, cell-based", "settings": "dose 10-90 nM"}, "RKO [21]": {"system": "RKO", "test": "Induction of morphological changes in human RKO cells assessed as appearance of condensed morphology incubated for 24 hrs by Giemsa staining based microscopic analysis", "assay_type": "functional, cell-based", "settings": "dose 10-90 nM"}, "RKO [22]": {"system": "RKO", "test": "Induction of apoptosis in human RKO cells assessed as apoptosis rate at 90 nM incubated for 24 hrs by Annexin V/PI staining based flow cytometric analysis (reference value: 4.87 %)", "assay_type": "functional"}, "Mitochondrial membrane [23]": {"system": "Mitochondrial membrane", "test": "Induction of mitochondrial membrane potential loss in human LoVo cells assessed as TMRE positive cells at 90 nM incubated for 24 hrs by TMRE staining based flow cytometric analysis (reference value: 95.93 %)", "assay_type": "cell membranes"}, "Mitochondrial membrane [24]": {"system": "Mitochondrial membrane", "test": "Induction of mitochondrial membrane potential loss in human LoVo cells assessed as decrease in TMRE positive cells at 10 to 90 nM incubated for 24 hrs by TMRE staining based flow cytometric analysis", "assay_type": "cell membranes", "settings": "dose 10-90 nM"}, "Mitochondrial membrane [25]": {"system": "Mitochondrial membrane", "test": "Induction of mitochondrial membrane potential loss in human RKO cells assessed as decrease in TMRE positive cells at 10 to 90 nM incubated for 24 hrs by TMRE staining based flow cytometric analysis", "assay_type": "cell membranes", "settings": "dose 10-90 nM"}, "LoVo [26]": {"system": "LoVo", "test": "Antitumor activity against human LoVo cells xenografted in male BALB/c nude mouse assessed as tumor growth inhibition at 40 mg/kg, ip administered once daily for 14 days relative to control", "assay_type": "functional", "settings": "336 h, time 14 day, read-out: TGI"}, "HT-29": {"system": "HT-29", "test": "Antitumor activity against human HT-29 cells xenografted in male BALB/c nude mouse assessed as tumor growth inhibition at 40 mg/kg, ip administered once daily for 14 days relative to control", "assay_type": "functional", "settings": "HT-29, 336 h, time 14 day, read-out: TGI"}, "[27]": {"test": "Toxicity in male BALB/c nude mouse xenografted with human HT-29 cells assessed as tolerance at 40 mg/kg, ip administered once daily for 14 days", "assay_type": "organism-based", "settings": "in vivo, 336 h, time 14 day"}, "[28]": {"test": "Toxicity in male BALB/c nude mouse xenografted with human LoVo cells assessed as body weight loss at 40 mg/kg, ip administered once daily for 14 days", "assay_type": "organism-based", "settings": "in vivo, 336 h, time 14 day"}, "[29]": {"test": "Chemical stability of compound in McCoy's 5A cell culture medium containing 1 % DMSO assessed as retention time at 100 uM incubated for 24 hrs by HPLC analysis", "assay_type": "physicochemical"}, "[30]": {"test": "Chemical stability of compound in McCoy's 5A cell culture medium containing 1 % DMSO assessed as (S)-3-fluoro-14-(3-fluorophenyl)-10-hydroxy-8,13,13b,14-tetrahydroindolo[2',3':3,4]pyrido[2,1-b]quinazolin-5(7H)-one release by measuring retention time at 100 uM incubated for 24 hrs by HPLC analysis", "assay_type": "physicochemical"}}, "note": "The source made the active and inactive calls. The rule behind the calls is not given here."}
{"smiles": "CC(C)(C)OC(=O)N[C@@H](CCC(N)=O)C(=O)Oc1ccc2[nH]c3c(c2c1)CCN1C(=O)c2cc(F)ccc2N(c2cccc(F)c2)[C@H]31", "values": [{"measurement": "IC50", "setting": "HCT-116", "result": 0.26, "unit": "µM"}, {"measurement": "IC50", "setting": "LoVo [1]", "result": 0.07, "unit": "µM"}, {"measurement": "IC50", "setting": "SGC-7901", "result": 0.49, "unit": "µM"}, {"measurement": "IC50", "setting": "Huh-7", "result": 0.37, "unit": "µM"}, {"measurement": "IC50", "setting": "SK-HEP1", "result": 0.87, "unit": "µM"}, {"measurement": "IC50", "setting": "MCF7", "result": 0.6, "unit": "µM"}, {"measurement": "half-life", "setting": "[2]", "result": 0.6, "unit": "h"}, {"measurement": "remaining at 48 h", "setting": "[3]", "result": 60.1, "unit": "%"}, {"measurement": "half-life", "setting": "[4]", "result": 1.38, "unit": "h"}, {"measurement": "Tmax", "setting": "[5]", "result": 1, "unit": "h"}, {"measurement": "AUC(0-t) at 24 h", "setting": "[6]", "result": 14.6, "unit": "µg·h/mL"}, {"measurement": "Ratio IC50", "setting": "[7]", "result": 3.4}, {"measurement": "Ratio IC50", "setting": "[8]", "result": 3.4}, {"measurement": "Activity", "setting": "RKO [9]", "result": "Dose-dependent-effect"}, {"measurement": "Activity", "setting": "LoVo [10]", "result": 25.84, "unit": "%"}, {"measurement": "Activity", "setting": "LoVo [11]", "result": 26.62, "unit": "%"}, {"measurement": "Activity", "setting": "LoVo [12]", "result": 45.15, "unit": "%"}, {"measurement": "Activity", "setting": "LoVo [13]", "result": 61.56, "unit": "%"}, {"measurement": "Activity", "setting": "LoVo [14]", "result": 26.97, "unit": "%"}, {"measurement": "Activity", "setting": "RKO [15]", "result": 26.83, "unit": "%"}, {"measurement": "Activity", "setting": "RKO [16]", "result": 27.14, "unit": "%"}, {"measurement": "Activity", "setting": "RKO [17]", "result": 42.5, "unit": "%"}, {"measurement": "Activity", "setting": "RKO [18]", "result": 56.8, "unit": "%"}, {"measurement": "Activity", "setting": "RKO [19]", "result": 25.51, "unit": "%"}, {"measurement": "Activity", "setting": "LoVo [20]", "result": "Dose-dependent-effect"}, {"measurement": "Activity", "setting": "RKO [21]", "result": "Dose-dependent-effect"}, {"measurement": "Activity", "setting": "RKO [22]", "result": 12.25, "unit": "%"}, {"measurement": "Activity", "setting": "Mitochondrial membrane [23]", "result": 86.7, "unit": "%"}, {"measurement": "Activity", "setting": "Mitochondrial membrane [24]", "result": "Active"}, {"measurement": "Activity", "setting": "Mitochondrial membrane [25]", "result": "Active"}, {"measurement": "inhibition in vivo at 40 mg/kg", "setting": "LoVo [26]", "result": 82.5, "unit": "%"}, {"measurement": "inhibition in vivo at 40 mg/kg", "setting": "HT-29", "result": 70.1, "unit": "%"}, {"measurement": "Activity", "setting": "[27]", "result": "Non-toxic"}, {"measurement": "Activity", "setting": "[28]", "result": "Non-toxic"}, {"measurement": "Retention_time", "setting": "[29]", "result": 8.63, "unit": "min"}, {"measurement": "Retention_time", "setting": "[30]", "result": 6.24, "unit": "min"}]}
